From patent publication US9828379B2 (priority 2013, dated 2017)

Assays:
FAAH [1] = target: T1, FAAH (Mus musculus, UniProt O08914); test: biochemical; settings: in vitro competitive ABPP
T1 sequence (O08914 1-579): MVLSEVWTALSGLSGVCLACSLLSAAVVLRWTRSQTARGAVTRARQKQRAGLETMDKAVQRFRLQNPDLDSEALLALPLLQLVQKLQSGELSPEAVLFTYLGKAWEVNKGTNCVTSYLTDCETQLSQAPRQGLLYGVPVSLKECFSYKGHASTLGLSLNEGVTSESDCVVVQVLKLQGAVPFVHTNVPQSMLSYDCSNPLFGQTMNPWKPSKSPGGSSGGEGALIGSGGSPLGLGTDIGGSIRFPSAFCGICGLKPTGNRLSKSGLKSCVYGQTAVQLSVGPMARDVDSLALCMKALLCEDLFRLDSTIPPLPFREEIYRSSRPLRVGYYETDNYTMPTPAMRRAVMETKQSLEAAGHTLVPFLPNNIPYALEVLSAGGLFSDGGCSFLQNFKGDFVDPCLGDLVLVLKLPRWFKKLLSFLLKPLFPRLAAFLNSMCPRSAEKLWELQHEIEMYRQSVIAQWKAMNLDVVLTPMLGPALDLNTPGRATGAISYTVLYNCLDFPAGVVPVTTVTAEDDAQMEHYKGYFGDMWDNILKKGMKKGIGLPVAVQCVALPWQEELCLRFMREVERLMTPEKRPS

MAGL [2] = target: T2, MAGL (Mus musculus, UniProt O35678); test: biochemical; settings: mouse; in vitro competitive ABPP; read-out: Mouse (IC50 value, nM) MAGL
T2 sequence (O35678 1-303): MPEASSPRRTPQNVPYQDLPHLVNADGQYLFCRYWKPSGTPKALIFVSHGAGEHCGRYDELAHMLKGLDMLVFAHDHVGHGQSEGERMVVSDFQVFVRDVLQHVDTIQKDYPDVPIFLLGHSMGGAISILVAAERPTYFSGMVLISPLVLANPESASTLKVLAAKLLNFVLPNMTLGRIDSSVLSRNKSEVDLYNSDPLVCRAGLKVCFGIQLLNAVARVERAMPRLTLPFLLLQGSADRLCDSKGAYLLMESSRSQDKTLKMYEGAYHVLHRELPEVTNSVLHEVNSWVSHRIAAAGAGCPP

FAAH [3] = target: T1, FAAH; test: In vitro competitive activity-based protein profiling (Table 2, % inhibition at 1 μM); type: biochemical; settings: read-out: % Inhibition at 1 μM FAAH
ABHD6 [4] = target: T3, ABHD6 (Mus musculus, UniProt Q8R2Y0); test: as above; type: biochemical; settings: read-out: % Inhibition at 1 μM ABHD6
T3 sequence (Q8R2Y0 1-336): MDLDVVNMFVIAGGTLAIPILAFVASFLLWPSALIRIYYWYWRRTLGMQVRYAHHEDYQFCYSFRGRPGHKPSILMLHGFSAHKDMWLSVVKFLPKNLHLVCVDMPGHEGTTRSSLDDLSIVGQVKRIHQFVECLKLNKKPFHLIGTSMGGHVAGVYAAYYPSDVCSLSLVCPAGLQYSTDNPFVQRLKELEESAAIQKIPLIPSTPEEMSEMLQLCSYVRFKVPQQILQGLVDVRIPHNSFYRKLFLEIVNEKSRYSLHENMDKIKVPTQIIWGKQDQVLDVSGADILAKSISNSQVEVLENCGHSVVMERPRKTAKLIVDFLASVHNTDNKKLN

ABHD6 [5] = target: T3, ABHD6; test: biochemical; settings: in vitro competitive ABPP
MAGL [6] = target: T2, MAGL; test: In vitro competitive activity-based protein profiling (Table 2, % inhibition at 1 μM); type: biochemical; settings: read-out: % Inhibition at 1 μM MAGL
Description: After 30 min, FP—Rh (1.0 μL, 50 μM in DMSO) was added and the mixture was incubated for another 30 min at 37° C. Reactions were quenched with SDS loading buffer (50 μL-4×) and run on SDS-PAGE.
Cell lysates were diluted with mock proteomes for use in competitive ABPP experiments.

Row | Structure (SMILES) | IC50 (FAAH [1]) | IC50 (MAGL [2]) | inhibition at 1 µM (FAAH [3]) | inhibition at 1 µM (ABHD6 [4]) | IC50 (ABHD6 [5]) | inhibition at 1 µM (MAGL [6])
1 | CN1CCN(c2c(Cl)cccc2CN2CC3CN(C(=O)OC(C(F)(F)F)C(F)(F)F)CC3C2)CC1 (stereo not drawn) [Example 171, 1,1,1,3,3,3-hexafluoropropan-2-yl 5-[[3-chloro-2-(4-methylpiperazin-1-yl)phenyl]methyl]-octahydropyrrolo[3,4-c]pyrrole-2-carboxylate] | > 10000 nM | 100 to 1000 nM | < 25% | < 25% | 1000 to 10000 nM | > 75%
2 | CC1COCCN1c1cc(F)ccc1CN1CC2CN(C(=O)OC(C(F)(F)F)C(F)(F)F)CC2C1 (stereo not drawn) [Example 16, 1,1,1,3,3,3-Hexafluoropropan-2-yl 5-[[4-fluoro-2-(3-methylmorpholin-4-yl)phenyl]methyl]-octahydropyrrolo[3,4-c]pyrrole-2-carboxylate] | 1000 to 10000 nM | < 100 nM | < 25% | < 25% | 1000 to 10000 nM | > 75%
3 | O=C(ON1C(=O)CCC1=O)N1CC2CN(Cc3ccc(Cl)cc3N3CCOC4CCCC43)CC2C1 (stereo not drawn) [Example 82, 2,5-Dioxopyrrolidin-1-yl 5-(4-chloro-2-(hexahydrocyclopenta[b][1,4]oxazin-4(4aH)-yl)benzyl)hexahydropyrrolo[3,4-c]pyrrole-2(1H)-carboxylate] | 1000 to 10000 nM | 100 to 1000 nM | < 25% | 25 to 75% | 1000 to 10000 nM | 25 to 75%
4 | Cc1c(CN2CC3CN(C(=O)ON4C(=O)CCC4=O)CC3C2)cccc1N1CCCCC1 (stereo not drawn) [Example 104, 2,5-Dioxopyrrolidin-1-yl 5-[[2-methyl-3-(piperidin-1-yl)phenyl]methyl]-octahydropyrrolo[3,4-c]pyrrole-2-carboxylate] | 100 to 1000 nM | < 100 nM | > 75% | < 25% | 1000 to 10000 nM | > 75%
5 | CCN1CCN(c2c(C)cccc2CN2CC3CN(C(=O)OC(C(F)(F)F)C(F)(F)F)CC3C2)CC1 (stereo not drawn) [Example 148, 1,1,1,3,3,3-hexafluoropropan-2-yl 5-[[2-(4-ethylpiperazin-1-yl)-3-methylphenyl]methyl]-octahydropyrrolo[3,4-c]pyrrole-2-carboxylate] | > 10000 nM | 100 to 1000 nM | < 25% | < 25% | 1000 to 10000 nM | > 75%
6 | CC(C)(C)c1cc(CN2CC3CN(C(=O)OC(C(F)(F)F)C(F)(F)F)CC3C2)n(C2CCOCC2)n1 (stereo not drawn) [Example 157, 1,1,1,3,3,3-hexafluoropropan-2-yl 5-[[3-tert-butyl-1-(oxan-4-yl)-1H-pyrazol-5-yl]methyl]-octahydropyrrolo[3,4-c]pyrrole-2-carboxylate] | > 10000 nM | 100 to 1000 nM | < 25% | < 25% | 1000 to 10000 nM | > 75%
7 | CC(=O)N1CCN(c2ccc(CN3CC4CN(C(=O)OC(C(F)(F)F)C(F)(F)F)CC4C3)c(F)c2)CC1 (stereo not drawn) [Example 26, 1,1,1,3,3,3-Hexafluoropropan-2-yl 5-[[4-(4-acetylpiperazin-1-yl)-2-fluorophenyl]methyl]-octahydropyrrolo[3,4-c]pyrrole-2-carboxylate] | 1000 to 10000 nM | 100 to 1000 nM | < 25% | 25 to 75% | 1000 to 10000 nM | > 75%
8 | O=C(OC(C(F)(F)F)C(F)(F)F)N1CC2CN(Cc3ccc(Cl)cc3N3CC4COCC4C3)CC2C1 (stereo not drawn) [Example 208, 1,1,1,3,3,3-hexafluoropropan-2-yl 5-(4-chloro-2-(tetrahydro-1H-furo[3,4-c]pyrrol-5(3H)-yl)benzyl)hexahydropyrrolo[3,4-c]pyrrole-2(1H)-carboxylate] | 1000 to 10000 nM | 100 to 1000 nM | < 25% | < 25% | 1000 to 10000 nM | > 75%
9 | CC1COCCN1c1cc(Cl)ccc1CN1CC2CN(C(=O)OC(C(F)(F)F)C(F)(F)F)CC2C1 (stereo not drawn) [Example 20, 1,1,1,3,3,3-Hexafluoropropan-2-yl 5-[[4-chloro-2-(3-methylmorpholin-4-yl)phenyl]methyl]-octahydropyrrolo[3,4-c]pyrrole-2-carboxylate] | 1000 to 10000 nM | < 100 nM | < 25% | < 25% | 1000 to 10000 nM | > 75%
10 | O=C(OC(C(F)(F)F)C(F)(F)F)N1CC2CN(Cc3ccc(Cl)cc3N3CCn4ccnc4C3)CC2C1 (stereo not drawn) [Example 33, 1,1,1,3,3,3-Hexafluoropropan-2-yl 5-[(4-chloro-2-[5H,6H,7H,8H-imidazo[1,2-a]pyrazin-7-yl]phenyl)methyl]-octahydropyrrolo[3,4-c]pyrrole-2-carboxylate] | 1000 to 10000 nM | < 100 nM | 25 to 75% | 25 to 75% | 1000 to 10000 nM | > 75%
11 | O=C(OC(C(F)(F)F)C(F)(F)F)N1CC2CN(Cc3cccc(Cl)c3N3C4CCC3COC4)CC2C1 (stereo not drawn) [Example 43, 1,1,1,3,3,3-Hexafluoropropan-2-yl 5-[(3-chloro-2-[3-oxa-8-azabicyclo[3.2.1]octan-8-yl]phenyl)methyl]-octahydropyrrolo[3,4-c]pyrrole-2-carboxylate] | 1000 to 10000 nM | < 100 nM | < 25% | < 25% | 1000 to 10000 nM | > 75%
12 | O=C(OC(C(F)(F)F)C(F)(F)F)N1CC2CN(Cc3ccccc3-c3ccccc3)CC2C1 (stereo not drawn) [Example 12, 1,1,1,3,3,3-Hexafluoropropan-2-yl 5-[(2-phenylphenyl)methyl]-octahydropyrrolo[3,4-c]pyrrole-2-carboxylate] | 1000 to 10000 nM | < 100 nM | 25 to 75% | < 25% | > 10000 nM | > 75%
13 | CCn1ncc(CN2CC3CN(C(=O)OC(C(F)(F)F)C(F)(F)F)CC3C2)c1C(=O)NCc1ccccc1 (stereo not drawn) [Example 75, 1,1,1,3,3,3-Hexafluoropropan-2-yl 5-((5-(benzylcarbamoyl)-1-ethyl-1H-pyrazol-4-yl)methyl)hexahydropyrrolo[3,4-c]pyrrole-2(1H)-carboxylate] | 1000 to 10000 nM | < 100 nM | < 25% | > 75% | 100 to 1000 nM | > 75%
14 | O=C(OC(C(F)(F)F)C(F)(F)F)N1CC2CN(Cc3ccc(C(F)F)cc3N3CCOCC3)CC2C1 (stereo not drawn) [Example 203, 1,1,1,3,3,3-hexafluoropropan-2-yl 5-(4-(difluoromethyl)-2-morpholinobenzyl)hexahydropyrrolo[3,4-c]pyrrole-2(1H)-carboxylate] | 1000 to 10000 nM | < 100 nM | < 25% | 25 to 75% | 1000 to 10000 nM | > 75%
15 | CCc1cc(CN2CC3CN(C(=O)OC(C(F)(F)F)C(F)(F)F)CC3C2)n(C2CCOCC2)n1 (stereo not drawn) [Example 156, 1,1,1,3,3,3-hexafluoropropan-2-yl 5-[[3-ethyl-1-(oxan-4-yl)-1H-pyrazol-5-yl]methyl]-octahydropyrrolo[3,4-c]pyrrole-2-carboxylate] | 1000 to 10000 nM | < 100 nM | < 25% | < 25% | 1000 to 10000 nM | > 75%
